According to ChEMBL document CHEMBL5291721, “A preclinical secondary pharmacology resource illuminates target-adverse drug reaction associations of marketed drugs” (Nat Commun, 2023):

Key:
[1] = target: T1, Corticotropin-releasing factor receptor 1 (Homo sapiens, UniProt P34998)
T1 sequence (P34998 whole entry): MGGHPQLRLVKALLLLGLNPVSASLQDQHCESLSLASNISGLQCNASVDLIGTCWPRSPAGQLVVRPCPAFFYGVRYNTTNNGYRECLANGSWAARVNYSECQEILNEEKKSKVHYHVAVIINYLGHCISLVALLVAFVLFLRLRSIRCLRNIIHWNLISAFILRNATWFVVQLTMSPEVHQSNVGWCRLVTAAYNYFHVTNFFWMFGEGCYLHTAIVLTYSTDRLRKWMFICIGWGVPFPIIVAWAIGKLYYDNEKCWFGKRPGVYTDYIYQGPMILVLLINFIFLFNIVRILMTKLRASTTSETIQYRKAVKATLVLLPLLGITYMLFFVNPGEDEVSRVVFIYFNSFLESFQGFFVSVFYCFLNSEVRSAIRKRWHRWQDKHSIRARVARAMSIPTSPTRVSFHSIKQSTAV

[2] = target: T2, Endothelin receptor type B (Homo sapiens, UniProt P24530)
T2 sequence (P24530 whole entry): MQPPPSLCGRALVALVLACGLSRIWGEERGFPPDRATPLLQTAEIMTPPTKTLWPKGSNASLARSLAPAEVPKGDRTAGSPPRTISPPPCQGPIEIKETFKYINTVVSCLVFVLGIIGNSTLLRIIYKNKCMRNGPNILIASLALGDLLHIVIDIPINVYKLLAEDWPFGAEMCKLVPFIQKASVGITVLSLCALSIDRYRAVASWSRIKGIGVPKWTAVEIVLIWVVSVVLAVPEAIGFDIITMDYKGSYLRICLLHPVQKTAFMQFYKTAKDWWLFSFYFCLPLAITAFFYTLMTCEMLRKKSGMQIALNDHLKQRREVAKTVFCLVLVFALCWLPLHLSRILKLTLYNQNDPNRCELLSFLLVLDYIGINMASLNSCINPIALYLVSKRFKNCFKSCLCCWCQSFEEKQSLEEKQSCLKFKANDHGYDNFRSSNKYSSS

Glucagon receptor = Glucagon receptor (Homo sapiens, UniProt P47871)
Glucagon receptor, sequence (P47871 whole entry): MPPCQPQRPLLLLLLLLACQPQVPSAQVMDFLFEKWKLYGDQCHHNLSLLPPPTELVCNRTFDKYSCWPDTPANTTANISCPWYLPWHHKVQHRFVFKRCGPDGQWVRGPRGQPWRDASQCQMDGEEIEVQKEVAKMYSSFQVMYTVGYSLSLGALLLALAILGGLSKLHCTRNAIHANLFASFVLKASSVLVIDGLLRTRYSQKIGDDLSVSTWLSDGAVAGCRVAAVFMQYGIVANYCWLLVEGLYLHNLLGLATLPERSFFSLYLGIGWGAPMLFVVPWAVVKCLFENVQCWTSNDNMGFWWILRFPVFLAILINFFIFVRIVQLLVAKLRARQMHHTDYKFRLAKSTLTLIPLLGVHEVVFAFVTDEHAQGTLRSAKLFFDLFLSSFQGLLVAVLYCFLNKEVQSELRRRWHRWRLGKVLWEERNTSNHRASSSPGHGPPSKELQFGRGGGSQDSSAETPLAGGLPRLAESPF

[3] = target: T3, Neuropeptide Y receptor type 2 (Homo sapiens, UniProt P49146)
T3 sequence (P49146 whole entry): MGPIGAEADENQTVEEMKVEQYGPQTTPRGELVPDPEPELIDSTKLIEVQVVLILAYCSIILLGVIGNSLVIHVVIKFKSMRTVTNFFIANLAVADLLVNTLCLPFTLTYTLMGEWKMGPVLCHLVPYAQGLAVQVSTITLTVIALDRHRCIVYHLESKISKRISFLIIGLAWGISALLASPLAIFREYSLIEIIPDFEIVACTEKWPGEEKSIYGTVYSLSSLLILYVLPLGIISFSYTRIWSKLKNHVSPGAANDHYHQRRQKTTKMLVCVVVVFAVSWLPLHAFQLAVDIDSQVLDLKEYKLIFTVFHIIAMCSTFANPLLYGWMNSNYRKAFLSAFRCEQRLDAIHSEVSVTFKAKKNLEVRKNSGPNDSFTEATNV

[4] = target: Neurotensin receptor type 1 (Homo sapiens, UniProt P30989)
Neurotensin receptor type 1, sequence (P30989 whole entry): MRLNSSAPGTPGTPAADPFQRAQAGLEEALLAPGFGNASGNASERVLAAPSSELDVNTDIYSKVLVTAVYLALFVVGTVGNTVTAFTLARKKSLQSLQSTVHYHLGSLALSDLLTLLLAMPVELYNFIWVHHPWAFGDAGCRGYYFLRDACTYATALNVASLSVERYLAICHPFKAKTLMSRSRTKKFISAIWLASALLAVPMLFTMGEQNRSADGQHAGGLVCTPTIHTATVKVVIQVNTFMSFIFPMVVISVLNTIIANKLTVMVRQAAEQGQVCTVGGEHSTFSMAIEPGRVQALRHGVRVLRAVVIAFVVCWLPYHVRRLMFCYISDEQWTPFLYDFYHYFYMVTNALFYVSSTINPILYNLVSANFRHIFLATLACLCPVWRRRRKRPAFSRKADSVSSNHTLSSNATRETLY

[5] = target: T4, 5-hydroxytryptamine receptor 1A (Homo sapiens, UniProt P08908)
T4 sequence (P08908 whole entry): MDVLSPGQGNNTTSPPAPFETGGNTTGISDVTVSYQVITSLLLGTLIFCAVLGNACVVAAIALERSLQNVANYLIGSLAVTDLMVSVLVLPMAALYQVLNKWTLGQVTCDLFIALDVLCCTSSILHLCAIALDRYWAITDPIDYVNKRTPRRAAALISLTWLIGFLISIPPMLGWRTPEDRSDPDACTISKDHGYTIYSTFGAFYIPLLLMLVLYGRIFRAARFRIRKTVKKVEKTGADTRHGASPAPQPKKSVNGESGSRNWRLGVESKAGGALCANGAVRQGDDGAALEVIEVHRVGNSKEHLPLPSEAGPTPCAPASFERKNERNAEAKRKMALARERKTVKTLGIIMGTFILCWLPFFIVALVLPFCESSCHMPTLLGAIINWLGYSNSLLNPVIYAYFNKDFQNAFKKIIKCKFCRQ

Androgen receptor = target: T5, Androgen receptor (Rattus norvegicus, UniProt P15207)
T5 sequence (P15207 whole entry): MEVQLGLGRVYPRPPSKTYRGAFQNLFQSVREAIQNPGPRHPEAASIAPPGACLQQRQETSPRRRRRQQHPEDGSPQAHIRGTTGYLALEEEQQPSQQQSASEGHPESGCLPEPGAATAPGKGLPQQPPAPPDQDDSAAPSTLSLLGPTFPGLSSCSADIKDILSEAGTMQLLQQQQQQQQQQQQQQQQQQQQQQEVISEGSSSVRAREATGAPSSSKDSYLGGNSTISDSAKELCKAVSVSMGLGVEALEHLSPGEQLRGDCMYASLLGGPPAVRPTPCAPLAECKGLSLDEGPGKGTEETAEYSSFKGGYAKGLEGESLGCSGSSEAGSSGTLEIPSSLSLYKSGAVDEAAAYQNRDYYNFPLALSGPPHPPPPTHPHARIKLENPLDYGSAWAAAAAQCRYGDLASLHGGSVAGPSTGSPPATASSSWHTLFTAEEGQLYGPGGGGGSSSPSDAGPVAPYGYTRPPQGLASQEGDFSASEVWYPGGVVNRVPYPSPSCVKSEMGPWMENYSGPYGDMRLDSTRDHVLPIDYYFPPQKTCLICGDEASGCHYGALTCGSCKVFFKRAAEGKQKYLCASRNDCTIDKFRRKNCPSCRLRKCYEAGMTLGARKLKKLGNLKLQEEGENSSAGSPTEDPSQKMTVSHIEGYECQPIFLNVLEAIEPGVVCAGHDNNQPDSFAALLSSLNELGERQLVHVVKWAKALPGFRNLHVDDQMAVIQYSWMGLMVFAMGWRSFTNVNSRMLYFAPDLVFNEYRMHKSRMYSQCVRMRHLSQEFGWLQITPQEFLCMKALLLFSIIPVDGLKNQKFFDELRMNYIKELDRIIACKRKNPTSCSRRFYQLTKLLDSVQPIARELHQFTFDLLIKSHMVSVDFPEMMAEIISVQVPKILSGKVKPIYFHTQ

[6] = target: Gamma-aminobutyric acid receptor subunit alpha-1/alpha-2/beta-2/gamma-2 (Homo sapiens, UniProt P14867+P18507+P47869+P47870); type: functional, cell-based
Gamma-aminobutyric acid receptor subunit alpha-1/alpha-2/beta-2/gamma-2, sequence (P14867 whole entry): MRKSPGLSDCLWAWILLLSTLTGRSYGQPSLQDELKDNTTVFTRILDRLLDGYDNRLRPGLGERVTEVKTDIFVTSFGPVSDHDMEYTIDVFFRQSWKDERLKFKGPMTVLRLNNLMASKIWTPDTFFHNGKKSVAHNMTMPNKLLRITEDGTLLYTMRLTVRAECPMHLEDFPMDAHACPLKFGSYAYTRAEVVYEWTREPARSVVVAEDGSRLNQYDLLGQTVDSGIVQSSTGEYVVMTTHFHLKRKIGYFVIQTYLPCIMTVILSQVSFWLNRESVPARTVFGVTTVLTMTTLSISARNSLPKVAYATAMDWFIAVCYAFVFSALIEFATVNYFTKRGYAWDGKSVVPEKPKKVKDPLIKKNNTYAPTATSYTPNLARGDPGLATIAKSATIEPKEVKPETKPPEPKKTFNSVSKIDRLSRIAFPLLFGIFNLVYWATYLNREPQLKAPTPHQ
Gamma-aminobutyric acid receptor subunit alpha-1/alpha-2/beta-2/gamma-2, sequence (P47870 whole entry): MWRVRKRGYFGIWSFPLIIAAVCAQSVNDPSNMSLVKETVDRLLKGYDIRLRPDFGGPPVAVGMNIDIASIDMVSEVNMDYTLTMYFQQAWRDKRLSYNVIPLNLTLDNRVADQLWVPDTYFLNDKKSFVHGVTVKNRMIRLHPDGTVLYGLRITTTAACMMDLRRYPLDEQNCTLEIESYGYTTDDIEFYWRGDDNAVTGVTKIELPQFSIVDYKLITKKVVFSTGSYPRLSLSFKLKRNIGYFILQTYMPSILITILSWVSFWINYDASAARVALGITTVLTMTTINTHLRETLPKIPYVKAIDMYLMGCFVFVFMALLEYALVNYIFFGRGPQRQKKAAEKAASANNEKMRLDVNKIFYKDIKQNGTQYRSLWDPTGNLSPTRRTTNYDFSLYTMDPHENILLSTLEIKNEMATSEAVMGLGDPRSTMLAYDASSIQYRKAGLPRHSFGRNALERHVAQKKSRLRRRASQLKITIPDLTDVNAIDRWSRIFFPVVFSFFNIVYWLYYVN
Gamma-aminobutyric acid receptor subunit alpha-1/alpha-2/beta-2/gamma-2, sequence (P18507 whole entry): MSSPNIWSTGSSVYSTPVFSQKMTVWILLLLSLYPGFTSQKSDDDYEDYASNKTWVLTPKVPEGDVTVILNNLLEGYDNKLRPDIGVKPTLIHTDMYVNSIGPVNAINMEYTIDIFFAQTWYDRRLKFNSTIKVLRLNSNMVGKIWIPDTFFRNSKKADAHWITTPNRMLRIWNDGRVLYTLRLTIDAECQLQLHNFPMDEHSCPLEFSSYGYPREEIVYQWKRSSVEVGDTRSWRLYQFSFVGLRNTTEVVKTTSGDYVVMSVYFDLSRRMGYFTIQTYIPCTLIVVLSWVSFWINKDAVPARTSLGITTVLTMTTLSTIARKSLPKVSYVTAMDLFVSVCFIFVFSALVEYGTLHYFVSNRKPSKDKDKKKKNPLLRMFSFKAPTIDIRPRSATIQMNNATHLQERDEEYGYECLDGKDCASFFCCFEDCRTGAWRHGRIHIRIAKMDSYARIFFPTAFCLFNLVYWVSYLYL
Gamma-aminobutyric acid receptor subunit alpha-1/alpha-2/beta-2/gamma-2, sequence (P47869 whole entry): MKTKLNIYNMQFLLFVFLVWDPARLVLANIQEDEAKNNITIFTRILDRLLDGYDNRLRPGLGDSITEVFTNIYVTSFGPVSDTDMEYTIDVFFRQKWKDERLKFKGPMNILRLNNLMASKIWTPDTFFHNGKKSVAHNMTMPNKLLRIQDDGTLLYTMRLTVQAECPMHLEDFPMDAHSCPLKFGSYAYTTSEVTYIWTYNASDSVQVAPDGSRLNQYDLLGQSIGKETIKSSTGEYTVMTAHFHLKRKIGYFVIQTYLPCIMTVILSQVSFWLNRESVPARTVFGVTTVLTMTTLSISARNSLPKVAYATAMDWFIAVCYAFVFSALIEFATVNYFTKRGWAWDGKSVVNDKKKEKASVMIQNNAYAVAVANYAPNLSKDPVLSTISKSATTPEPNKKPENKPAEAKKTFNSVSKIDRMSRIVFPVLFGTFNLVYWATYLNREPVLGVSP
Note: assay procedure not described here.

CN[C@@H](C)[C@H](O)c1ccccc1 [EPHEDRINE]
AC50 [1]: > 30 µM
AC50 [2]: > 30 µM
AC50 (Glucagon receptor): > 30 µM
AC50 [3]: > 30 µM
AC50 [4]: > 30 µM
AC50 [5]: > 10 µM

NC(CO)C(=O)NNCc1ccc(O)c(O)c1O (stereo not given) [BENSERAZIDE]
AC50 (Androgen receptor): > 30 µM
AC50 [1]: > 30 µM
AC50 [2]: > 30 µM
AC50 (Glucagon receptor): > 30 µM
AC50 [3]: > 30 µM
AC50 [4]: > 30 µM
AC50 [5]: > 10 µM

Nc1nc2ccc(OC(F)(F)F)cc2s1 [RILUZOLE]
AC50 [6]: > 30 µM

NC(=O)C[S+]([O-])C(c1ccccc1)c1ccccc1 (stereo not given) [MODAFINIL]
AC50 [1]: > 30 µM
AC50 [2]: 23.5 µM
AC50 (Glucagon receptor): > 30 µM
AC50 [3]: > 30 µM
AC50 [4]: > 30 µM
AC50 [5]: > 10 µM

O=C1CN=C(c2ccccc2)c2cc(Cl)ccc2N1CC(F)(F)F [HALAZEPAM]
AC50 [6]: > 30 µM

CC(=O)O[C@@]12CO[C@@H]1C[C@H](O)[C@@]1(C)C(=O)[C@H](O)C3=C(C)[C@@H](OC(=O)[C@H](O)[C@@H](NC(=O)OC(C)(C)C)c4ccccc4)C[C@@](O)([C@@H](OC(=O)c4ccccc4)[C@H]21)C3(C)C [DOCETAXEL ANHYDROUS]
AC50 (Androgen receptor): > 30 µM

C[C@H]1C[C@@H]2[C@H]([C@@H](O)C[C@@]3(C)[C@H]2CC[C@]3(O)C(=O)COC(=O)CCC(=O)O)[C@@]2(C)C=CC(=O)C=C12 [METHYLPREDNISOLONE HEMISUCCINATE]
AC50 [6]: > 30 µM

CCNC(C)Cc1cccc(C(F)(F)F)c1 (stereo not given) [FENFLURAMINE]
AC50 [1]: > 30 µM
AC50 [2]: > 30 µM
AC50 (Glucagon receptor): > 30 µM
AC50 [3]: > 30 µM
AC50 [4]: > 30 µM

CN1CCN(C(=O)OC2c3nccnc3C(=O)N2c2ccc(Cl)cn2)CC1 (stereo not given) [ZOPICLONE]
AC50 [1]: > 30 µM
AC50 [2]: > 30 µM
AC50 (Glucagon receptor): > 30 µM
AC50 [3]: > 30 µM
AC50 [4]: > 30 µM
AC50 [5]: > 10 µM

C=C1CC[C@@]2(O)[C@H]3Cc4ccc(O)c5c4[C@@]2(CCN3CC2CC2)[C@H]1O5
AC50 [6]: > 30 µM

Cc1cc2c(OCC(CNC(C)(C)C)OC(=O)c3ccccc3)cccc2[nH]1 (stereo not given) [BOPINDOLOL]
AC50 [5]: 0.0522 µM

CCCCCOC(=O)Nc1nc(=O)n([C@@H]2O[C@H](C)[C@@H](O)[C@H]2O)cc1F [CAPECITABINE]
AC50 [6]: > 30 µM

CCCOc1ccc(C(=O)OCCN(CC)CC)cc1N [PROPARACAINE]
AC50 [6]: > 30 µM

CCCCC(C)(O)C/C=C/[C@H]1[C@H](O)CC(=O)[C@@H]1CCCCCCC(=O)OC (stereo not given in full) [MISOPROSTOL]
AC50 [6]: > 30 µM

Cc1cc(-c2ccccc2)nnc1NCCN1CCOCC1 [MINAPRINE]
AC50 [1]: > 30 µM
AC50 [2]: > 30 µM
AC50 (Glucagon receptor): > 30 µM
AC50 [3]: > 30 µM
AC50 [4]: > 30 µM
AC50 [5]: > 10 µM

CCCCCCC(C)(C)c1cc(O)c2c(c1)OC(C)(C)C1CCC(=O)CC21 (stereo not given) [NABILONE]
AC50 [6]: > 30 µM

COc1ccc2cccc(CCNC(C)=O)c2c1 [AGOMELATINE]
AC50 (Androgen receptor): > 30 µM
AC50 [1]: > 30 µM
AC50 [2]: > 30 µM
AC50 (Glucagon receptor): > 30 µM
AC50 [3]: > 30 µM
AC50 [4]: > 30 µM
AC50 [5]: > 10 µM

COC(=O)C1=C(C)NC(C)=C(C(=O)OC(C)C)C1c1cccc2nonc12 (stereo not given) [ISRADIPINE]
AC50 (Androgen receptor): > 30 µM

C#CC1(OC(N)=O)CCCCC1 [ETHINAMATE]
AC50 (Androgen receptor): > 10 µM

[H]/N=C(/N)c1ccc(NCc2nc3cc(C(=O)N(CCC(=O)O)c4ccccn4)ccc3n2C)cc1 [DABIGATRAN]
AC50 [6]: > 30 µM

Nc1ncnc2c1ncn2[C@@H]1O[C@H](COP(=O)(O)O)[C@@H](O)[C@H]1O [ADENOSINE PHOSPHATE]
AC50 [6]: > 30 µM

C1COC(NC(C2CC2)C2CC2)=N1 [RILMENIDINE]
AC50 [5]: 20.5 µM

C#CCN[C@@H]1CCc2ccccc21 [RASAGILINE]
AC50 (Androgen receptor): > 30 µM

O=C(O)CCCc1ccccc1 [PHENYLBUTANOIC ACID]
AC50 [1]: > 30 µM
AC50 [2]: > 30 µM
AC50 (Glucagon receptor): > 30 µM
AC50 [3]: > 30 µM
AC50 [4]: > 30 µM
AC50 [5]: > 10 µM

CN1CCc2cccc3c2[C@H]1Cc1ccc(O)c(O)c1-3 [APOMORPHINE]
AC50 [1]: > 30 µM
AC50 [2]: > 30 µM
AC50 (Glucagon receptor): > 30 µM
AC50 [3]: > 30 µM
AC50 [4]: > 30 µM

CCC1(C2=CCCCCC2)C(=O)NC(=O)NC1=O [HEPTABARBITAL]
AC50 (Androgen receptor): > 10 µM

CN1CC[C@]23CCCC[C@H]2[C@H]1Cc1ccc(O)cc13 [LEVORPHANOL]
AC50 (Androgen receptor): > 10 µM

CCN(CC)CCOC(=O)c1ccc(N)cc1 [PROCAINE]
AC50 [5]: > 10 µM

Cc1ccc(-c2nc3ccc(C)cn3c2CC(=O)N(C)C)cc1 [ZOLPIDEM]
AC50 [1]: > 30 µM
AC50 [2]: > 30 µM
AC50 (Glucagon receptor): > 30 µM
AC50 [3]: > 30 µM
AC50 [4]: > 30 µM
AC50 [5]: > 10 µM

Cc1cccc(C)c1NC(=O)C1CCCCN1C (stereo not given) [MEPIVACAINE]
AC50 [6]: > 30 µM

CC1=CC(=O)c2ccccc2C1=O [MENADIONE]
AC50 (Androgen receptor): > 30 µM

CCCCCCCCOc1ccccc1C(=O)Nc1ccc(C(=O)OCC[N+](C)(CC)CC)cc1 [OTILONIUM BROMIDE]
AC50 [5]: > 30 µM

CC(Cc1ccccc1)NCCC(c1ccccc1)c1ccccc1 (stereo not given) [PRENYLAMINE]
AC50 [5]: 0.957 µM

CCN1CCC[C@H]1CNC(=O)c1cc(S(N)(=O)=O)ccc1OC [LEVOSULPIRIDE]
AC50 (Androgen receptor): > 30 µM
AC50 [5]: > 10 µM

CC/C=C\C/C=C\C/C=C\CCCCCCCC(=O)O [LINOLENIC ACID]
AC50 [6]: > 10 µM

CC(C)c1c(C(=O)Nc2ccccc2)c(-c2ccccc2)c(-c2ccc(F)cc2)n1CC[C@@H](O)C[C@@H](O)CC(=O)O [ATORVASTATIN]
AC50 [1]: > 30 µM
AC50 [2]: > 30 µM
AC50 (Glucagon receptor): > 30 µM
AC50 [3]: > 30 µM
AC50 [4]: > 30 µM
AC50 [5]: > 10 µM

COc1ccc(C(=O)N2CCN(c3ccc4c(c3)CCC(=O)N4)CC2)cc1OC [VESNARINONE]
AC50 [6]: > 30 µM

CN[C@@H]1[C@H](O)[C@H](NC)[C@H]2O[C@@]3(O)C(=O)C[C@@H](C)O[C@H]3O[C@@H]2[C@H]1O [SPECTINOMYCIN]
AC50 (Androgen receptor): > 10 µM

CN1CCC2=C(C1)C(c1ccccc1)c1ccccc12 (stereo not given) [PHENINDAMINE]
AC50 (Androgen receptor): > 30 µM
